Values after ≈ are worked out from the molar mass of the structure shown. Where two headings read alike, the source gives them in different places. Marks after values point to notes of the source that are not given here. Peptide text beside a SMILES is read from it.
Experiments:
[1] = test system: IBS-C patients; details: published trial, 12 weeks; drug arm; cited from earlier work
[2] = physchem; details: for solubility: Solubility (room temp)
Description: Lovastatin was produced, analyzed and released using methodology known in the art.

[3] = test system: M. smithii; test: M. smithii colonized high-fat diet rats, qPCR of bowel segments; format: in vivo, Sprague-Dawley rats
Method: The rats were assessed for increased M. smithii by qPCR before and after the diet, and then divided into 3 groups. […] Each group was gavaged daily for 10 days. Three day stool collections were performed to assess average stool wet weight and daily variability prior to commencing the high fat diet, after 7 weeks of high-fat diet, and the final days of the lovastatin gavage (still on high-fat diet). On day 10 of the gavage, rats were euthanized and DNA was extracted from contents of ligated bowel segments (duodenum, jejunum, ileum, cecum and left colon). qPCR was performed using primers for total luminal bacteria and M. smithii.

[4] = cited from earlier work
[5] = pylorus-ligated rats, within 30 minutes; cited from earlier work
[6] = test system: human and rat fecal bacterial enzyme fractions; details: 12 h incubation; cited from earlier work
[7] = Binary stress testing of lovastatin with formulation excipients (HPLC); details: alone, over a range of conditions
Method: The compatibility of lovastatin drug substance with formulation excipients was evaluated in binary stress testing studies where 1:1 mixtures of lovastatin and each excipient were stored for 7 days under different conditions of temperature and relative humidity (RH). Samples were analyzed by HPLC (based on USP methods) at day 0 and day 7.

[8] = test system: methane production by stool samples from IBS-C patients; test: Methane production by human stool in vitro; format: cell-based
Description: Data are change from baseline (ΔCH4 ppm) in headspace methane. […] Error bars are SD. P values are significance of change from baseline (paired t-test).
The second principle, without wishing to be bound by theory, is to reduce the pre-systemic conversion of lovastatin lactone to the β-hydroxyacid metabolite. […] Conversion of lovastatin lactone to β-hydroxyacid occurs in stomach acid and through the action of plasma, intestinal and liver esterases; some conversion may also be catalysed by intestinal bacteria.
The potential methane-reducing effect of lovastatin lactone concentrations in the stool of healthy volunteers was estimated by comparison of stool concentrations to lovastatin lactone concentrations used to inhibit methane production in stool samples from an IBS-C patient in vitro.

[9] = cited from earlier work; remark: listed apart in the source
[10] = Cecum, 1.5 mg/rat daily for 10 days
[11] = Duodenum, 1.5 mg/rat gavage daily for 10 days
[12] = Jejunum, 1.5 mg/rat daily for 10 days
[13] = Left Colon, 1.5 mg/rat daily for 10 days
[14] = stool samples from IBS-C patients in vitro

Which results are given for `C[C@@H]1NC(=O)[C@@H]2CCCN2C(=O)[C@H](CC(N)=O)NC(=O)[C@@H]2CSSC[C@H](N)C(=O)N[C@H]3CSSC[C@H](NC1=O)C(=O)N[C@@H]([C@@H](C)O)C(=O)NCC(=O)N[C@H](C(=O)N[C@@H](Cc1ccc(O)cc1)C(=O)O)CSSC[C@H](NC(=O)[C@H](Cc1ccc(O)cc1)NC(=O)[C@H](CCC(=O)O)NC3=O)C(=O)N2` [Linaclotide] (HELM PEPTIDE1{C.C.E.Y.C.C.N.P.A.C.T.G.C.Y}$PEPTIDE1,PEPTIDE1,1:R3-6:R3|PEPTIDE1,PEPTIDE1,2:R3-10:R3|PEPTIDE1,PEPTIDE1,5:R3-13:R3$$$V2.0)?
Abdominal Pain Response, % Subjects [1]: 49.5 (36.0) %; Bloating Response, % Subjects [1]: 43.2 (26.8) %; CSBM Response, % Subjects [1]: 48.2 (26.1) %; Diarrhea Incidence, % Subjects [1]: 19.3 (2.8) %; Overall Response, % Subjects [1]: 33.6 (17.4) %

For `CC[C@H](C)C(=O)O[C@H]1C[C@@H](C)C=C2C=C[C@H](C)[C@H](CC[C@@H]3C[C@@H](O)CC(=O)O3)[C@H]21` [Lovastatin], which “Solubility (room temp)” value [2] is on record?
The value was “methanol 28 mg/mL”.

And the solubility ([2]; organic solvent or mixture)?
The solubility was 16000 µg/mL (≈ 39.6 mM).

What about the solubility ([2]; water) of the same compound?
Its solubility is 0.4 µg/mL (≈ 0.000989 mM).

What about the “M. smithii/Total Bacteria” value [3, 10] of the same compound?
Its value is 0.20.

And the “M. smithii/Total Bacteria” value [3, 11]?
The value was 1.30.

And the “M. smithii/Total Bacteria” value ([3]; Ileum, 1.5 mg/rat daily for 10 days, listed as Lactone)?
Its value is 0.19*.

What about the “M. smithii/Total Bacteria” value ([3]; Ileum, 1.5 mg/rat daily for 10 days, listed as lovastatin lactone) of the same compound?
The value was “reduced”.

What about the “M. smithii/Total Bacteria” value [3, 12] of the same compound?
The value was 0.12.

And the “M. smithii/Total Bacteria” value [3, 13]?
The value was 0.0029.

And the “pre-portal hydrolysis in vivo after oral administration” value [4]?
Its value is about 10%.

And the “intragastric dose exiting the gastric juice” value [5]?
Its value is about 30%.

And the “loss of lovastatin lactone” value [6]?
The value was 8-19%.

And the “stability in binary stress testing” value [7]?
Its value is “stable”.

And the “inhibition of methane AUC0-270” value ([8]; 0.2 mg/g stool, regression)?
The value was 85-90%.

What about the “methane AUC0-270 as percentage of the control value” ([8]; 0.2 mg/g stool, regression) of the same compound?
Its value is 10-15%.

And the “reduction of methane production” value ([8]; lovastatin lactone 0.04 mg/g stool, human stool in vitro)?
The value was about 60%.

And the “inhibition of methane production” value ([8]; lovastatin lactone 0.21-0.25 mg/g stool, in vitro)?
Its value is about 90%.

And the “inhibition of methane production” value [8, 14]?
The value was “only effective statin inhibitor”.

And the “absorption of orally-administered dose” value ([9]; human subjects, immediate release dosage form)?
Its value is about 31%.

With `CCCCC(F)(F)[C@@]1(O)CC[C@H]2[C@@H](CC(=O)[C@@H]2CCCCCCC(=O)O)O1` [Lubiprostone] as the compound, how does the “Abdominal Pain Response, % Subjects” value [1] read?
Its value is 36.7 (25.2) %.

What about the “Bloating Response, % Subjects” value [1] of the same compound?
Its value is 32.0 (25.1) %.

What about the “Overall Response, % Subjects” value [1] of the same compound?
Its value is 26.3 (15.3) %.

What does the source list for `CC(C)C[C@H](NC(=O)[C@@H]1CSSC[C@@H]2NC(=O)[C@H](CC(C)C)NC(=O)[C@H](CCC(=O)O)NC(=O)[C@@H](NC(=O)[C@H](CCC(=O)O)NC(=O)[C@H](CC(=O)O)NC(=O)[C@@H](N)CC(N)=O)CSSC[C@H](NC(=O)[C@H](C)NC(=O)[C@H](C(C)C)NC(=O)[C@H](CC(N)=O)NC(=O)[C@H](C(C)C)NC2=O)C(=O)N[C@@H]([C@@H](C)O)C(=O)NCC(=O)N1)C(=O)O` [Plecanatide] (HELM PEPTIDE1{N.D.E.C.E.L.C.V.N.V.A.C.T.G.C.L}$PEPTIDE1,PEPTIDE1,4:R3-12:R3|PEPTIDE1,PEPTIDE1,7:R3-15:R3$$$V2.0)?
Diarrhea Incidence, % Subjects [1]: 4.3 (1.0) %; Overall Response, % Subjects [1]: 25.7 (15.9) %

Which “Abdominal Pain Response, % Subjects” value [1] does the source give for `CN1Cc2c(Cl)cc(Cl)cc2[C@H](c2cccc(S(=O)(=O)NCCOCCOCCNC(=O)NCCCCNC(=O)NCCOCCOCCNS(=O)(=O)c3cccc([C@@H]4CN(C)Cc5c(Cl)cc(Cl)cc54)c3)c2)C1` [Tenapanor] here?
The value was 65.5 (48.3) %.

What about the “Bloating Response, % Subjects” value [1] of the same compound?
Its value is 59.5 (41.6) %.

What about the “CSBM Response, % Subjects” value [1] of the same compound?
Its value is 60.7 (33.7) %.

And the “Diarrhea Incidence, % Subjects” value [1]?
Its value is 11.2 (0.0) %.

What about the “Overall Response, % Subjects” value [1] of the same compound?
Its value is 50.0 (23.6) %.

Which “inhibition of methane production” value [8, 14] does the source give for `CC(C)c1c(C(=O)Nc2ccccc2)c(-c2ccccc2)c(-c2ccc(F)cc2)n1CC[C@@H](O)C[C@@H](O)CC(=O)O` [atorvastatin] here?
The value was “ineffective”.

Which results are given for `CC[C@H](C)C(=O)O[C@H]1C[C@@H](C)C=C2C=C[C@H](C)[C@H](CC[C@@H](O)C[C@@H](O)CC(=O)O)[C@H]21` [lovastatin β-hydroxyacid]?
M. smithii/Total Bacteria [3, 10]: 0.14; M. smithii/Total Bacteria [3, 11]: 1.41; M. smithii/Total Bacteria [3, 12]: 0.29; M. smithii/Total Bacteria [3, 13]: 0.0024; intragastric dose exiting the gastric juice [5]: ~30%; inhibition of methane production [8, 14]: ineffective; absorption of orally-administered dose ([9]; human, in vivo, po): 82-100%

Which “inhibition of methane production” value [8, 14] does the source give for `CC(C)c1nc(N(C)S(C)(=O)=O)nc(-c2ccc(F)cc2)c1/C=C/[C@@H](O)C[C@@H](O)CC(=O)O` [rosuvastatin] here?
Its value is “ineffective”.

From patent publication US20200390742A1, “CLINICALLY EFFICACIOUS ANTI-METHANOGENIC COMPOSITIONS AND USES” (Cedars-Sinai Medical Center, priority 2016, published 2020)
